# According to paper PMC4104973 (IUCrJ, 2013):
# Key:
# [1] = biological target: T1, WcbI (Burkholderia pseudomallei, UniProt Q63R74); details: absolute Tm at 1 mM ligand (no ligand 37.4 ± 0.4 °C); 10 mM HEPES pH 7.0, 150 mM NaCl
# [2] = biological target: T1, WcbI; experiment: biochemical
# [3] = biological target: T1, WcbI; details: covalent (disulfide to Cys14); co-crystallized with 200 µM acetyl-CoA; native structure 4BQO (1.56 Å) holds non-covalent CoA carried from E. coli
# T1 sequence (Q63R74 1-312 limits assumed): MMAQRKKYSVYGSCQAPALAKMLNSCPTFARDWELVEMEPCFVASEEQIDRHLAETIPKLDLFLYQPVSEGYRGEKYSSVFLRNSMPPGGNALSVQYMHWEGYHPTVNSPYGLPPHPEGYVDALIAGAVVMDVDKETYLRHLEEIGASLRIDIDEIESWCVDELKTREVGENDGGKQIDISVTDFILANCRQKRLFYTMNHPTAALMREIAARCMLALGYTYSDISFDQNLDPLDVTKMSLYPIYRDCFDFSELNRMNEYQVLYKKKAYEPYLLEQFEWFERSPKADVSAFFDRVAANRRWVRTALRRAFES
SMILES,T m ± SD ^† (°C) [1],Kd [2],"X-ray crystal structure, 1.38 Å [3]"
CC(=O)SCCNC(=O)CCNC(=O)[C@H](O)C(C)(C)COP(=O)(O)OP(=O)(O)OC[C@H]1O[C@@H](n2cnc3c(N)ncnc32)[C@H](O)[C@@H]1OP(=O)(O)O [acetyl-CoA],45.6 ± 0.5 °C,,
CC(C)(COP(=O)(O)OP(=O)(O)OC[C@H]1O[C@@H](n2cnc3c(N)ncnc32)[C@H](O)[C@@H]1OP(=O)(O)O)[C@@H](O)C(=O)NCCC(=O)NCCS [coenzyme A],46.2 ± 0.2 °C,58 ± 2 µM,4bqn for WcbI covalently bound to coenzyme A and 4bqo for the native structure
